# Data: US11214803B2, “Modulators of YAP1 expression” (Ionis Pharmaceuticals, Inc., priority 2019, dated 2022)
# Strand notation (5' to 3'): a small letter for the sugar, then the base; units joined by * are phosphorothioate-linked, units joined directly phosphodiester-linked; [ ] holds rarer units or linkages, { } end groups; capitals alone tell only the bases. k = constrained ethyl (cEt); [5mC] = 5-methylcytosine; d = 2'-deoxy (DNA)
# Tested on: Yap1 mRNA
# Test: Dose-dependent inhibition of human Yap1 in A-431 cells (Example 7, 10,000 cells per well, RTS36584)
# Format: cell-based
# Conditions: free uptake
# Outline: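 Yap1 mRNA was expressed as percent of untreated control after normalization to total RNA (RIBOGREEN), and IC50 was derived by log/linear linear regression. The read-out used primer-probe set RTS36584 roughly 48 hours after free-uptake dosing of oligonucleotides into A-431 cells (10,000 cells/well).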
# [1] = 15.6 nM, A-431 cells, 10,000 cells per well, approximately 48 hours
# [2] = 62.5 nM, A-431 cells, 10,000 cells per well, approximately 48 hours
# [3] = 4000.00 nM, A-431 cells, 10,000 cells per well, approximately 48 hours
# [4] = A-431 cells, approximately 48 hours, linear regression on log/linear plot
# [5] = Table 61, 15.6 nM, A-431 cells 10,000 cells per well, 48 hours
# [6] = Table 61, 62.5 nM, A-431 cells 10,000 cells per well, 48 hours
# [7] = Table 61, 4000.00 nM, A-431 cells 10,000 cells per well, 48 hours
# [8] = Table 61, A-431 cells 10,000 cells per well
# [9] = Table 60, 15.6 nM, A-431 cells 10,000 cells per well, 48 hours
# [10] = Table 60, 62.5 nM, A-431 cells 10,000 cells per well, 48 hours
# [11] = Table 60, 4000.00 nM, A-431 cells 10,000 cells per well, 48 hours
# [12] = Table 60, A-431 cells 10,000 cells per well
substance,measurement,setting,value
958625 (kT*kG*k[5mC]*dT*dG*dG*dG*dA*dT*dT*dG*dA*dT*kA*kT*kT; antisense) [compound 958625],"Yap1 mRNA, % UTC",[1],86 % UTC
same,"Yap1 mRNA, % UTC",[2],59 % UTC
same,"Yap1 mRNA, % UTC",[3],17 % UTC
same,IC50,[4],100 nM
958644 (kA*kT*kG*dA*dT*d[5mC]*dA*dA*dA*d[5mC]*d[5mC]*dT*dT*kT*kT*k[5mC]; antisense) [compound 958644],"Yap1 mRNA, % UTC",[5],97 % UTC
same,"Yap1 mRNA, % UTC",[6],85 % UTC
same,"Yap1 mRNA, % UTC",[7],24 % UTC
same,IC50,[8],300 nM
958648 (kG*kA*kA*dT*dA*d[5mC]*dT*dG*dA*dG*dT*d[5mC]*dA*kG*kG*kA; antisense) [compound 958648],"Yap1 mRNA, % UTC",[9],80 % UTC
same,"Yap1 mRNA, % UTC",[10],65 % UTC
same,"Yap1 mRNA, % UTC",[11],24 % UTC
same,IC50,[12],200 nM
958650 (kT*k[5mC]*kA*dA*dT*dT*dG*dA*dG*dT*d[5mC]*dT*dG*k[5mC]*kT*kA; antisense) [compound 958650],"Yap1 mRNA, % UTC",[1],82 % UTC
same,"Yap1 mRNA, % UTC",[2],51 % UTC
same,"Yap1 mRNA, % UTC",[3],7 % UTC
same,IC50,[4],100 nM
958658 (kA*k[5mC]*kA*dG*dT*dA*dT*dA*dA*dT*dA*dT*d[5mC]*k[5mC]*kT*kA; antisense) [compound 958658],"Yap1 mRNA, % UTC",[9],90 % UTC
same,"Yap1 mRNA, % UTC",[10],88 % UTC
same,"Yap1 mRNA, % UTC",[11],29 % UTC
same,IC50,[12],400 nM
958659 (kG*kT*kT*dG*dT*dA*dT*dT*dA*d[5mC]*dT*d[5mC]*dT*k[5mC]*k[5mC]*kA; antisense) [compound 958659],"Yap1 mRNA, % UTC",[5],91 % UTC
same,"Yap1 mRNA, % UTC",[6],68 % UTC
same,"Yap1 mRNA, % UTC",[7],9 % UTC
same,IC50,[8],100 nM
958668 (kG*kT*kG*dA*dT*d[5mC]*dT*dG*dT*dG*dA*dG*dA*kG*kG*kT; antisense) [compound 958668],"Yap1 mRNA, % UTC","Table 59, 15.6 nM, A-431 cells 10,000 cells per well, 48 hours",81 % UTC
same,"Yap1 mRNA, % UTC","Table 59, 62.5 nM, A-431 cells 10,000 cells per well, 48 hours",38 % UTC
same,"Yap1 mRNA, % UTC","Table 59, 4000.00 nM, A-431 cells 10,000 cells per well, 48 hours",5 % UTC
same,IC50,"Table 59, A-431 cells 10,000 cells per well",100 nM
958686 (k[5mC]*kG*k[5mC]*dA*dA*dT*dA*dT*dA*dG*dT*d[5mC]*dT*kA*kT*kA; antisense) [compound 958686],"Yap1 mRNA, % UTC","Table 57, 15.6 nM, A-431 cells 10,000 cells per well, 48 hours",75 % UTC
same,"Yap1 mRNA, % UTC","Table 57, 62.5 nM, A-431 cells 10,000 cells per well, 48 hours",69 % UTC
same,"Yap1 mRNA, % UTC","Table 57, 4000.00 nM, A-431 cells 10,000 cells per well, 48 hours",18 % UTC
same,IC50,"Table 57, A-431 cells 10,000 cells per well",100 nM
958718 (kG*kA*kA*d[5mC]*dA*d[5mC]*dT*dA*dT*dA*dG*d[5mC]*dT*kT*kG*kG; antisense) [compound 958718],"Yap1 mRNA, % UTC",[9],104 % UTC
same,"Yap1 mRNA, % UTC",[10],80 % UTC
same,"Yap1 mRNA, % UTC",[11],24 % UTC
same,IC50,[12],200 nM
958724 (kT*k[5mC]*kA*dG*dT*dT*dA*dT*d[5mC]*d[5mC]*dT*dA*dT*k[5mC]*k[5mC]*k[5mC]; antisense) [compound 958724],"Yap1 mRNA, % UTC",[5],89 % UTC
same,"Yap1 mRNA, % UTC",[6],55 % UTC
same,"Yap1 mRNA, % UTC",[7],6 % UTC
same,IC50,[8],100 nM
958726 (k[5mC]*kT*kG*dT*d[5mC]*dA*dG*dT*dT*dA*dT*d[5mC]*d[5mC]*kT*kA*kT; antisense) [compound 958726],"Yap1 mRNA, % UTC","Table 56, 15.6 nM, A-431 cells 10,000 cells per well, 48 hours",99 % UTC
same,"Yap1 mRNA, % UTC","Table 56, 62.5 nM, A-431 cells 10,000 cells per well, 48 hours",70 % UTC
same,"Yap1 mRNA, % UTC","Table 56, 4000.00 nM, A-431 cells 10,000 cells per well, 48 hours",16 % UTC
same,IC50,"Table 56, A-431 cells 10,000 cells per well",170 nM
